In paper PMC7575681 (EJNMMI Research, 2020):

Assays:
[1] = set-up: method as in PMID 21498533; conditions: cited from earlier work
[2] = Micro-PET/CT brain imaging in ICR mice with thiamine deficiency (TD) and control mice; assay type: in vivo; conditions: control mice (C57BL/6 and ICR, Fig. 3a, c)
Excerpt: Eight-week-old male C57BL/6 and ICR mice were randomly divided into two groups: TD mouse models (n = 2 for C57BL/6, one died due to anesthesia during micro-PET/CT scanning; n = 3 for ICR) were established by feeding thiamine-deprived diet (Trophic Animal Feed High-tech Co., Ltd., China). Control mice (n = 3 for each strain) were fed the general diet. Twenty-eight days later, all mice received PET/CT scanning.
The animals were anesthetized by inhaling 1.5–2% of isoflurane in air (1.5 L/min) and received CT scan for acquiring structure image and attenuation correction data. […] Brain PET imaging was immediately performed and dynamically acquired for 90 min with an energy window of 350–650 KeV and a time window of 3.438 ns. […] Dynamic images were reconstructed by OSEM3D/SP-MAP algorithm with two iterations. After scanning, the mice were sacrificed.

| Compound | SUV in the brains of mice [1] | SUVs in the brains [2] |
| --- | --- | --- |
| OC[C@H]1OC(O)[C@H]([18F])[C@@H](O)[C@@H]1O (some centres unmarked) [FDG, [^18F]-fluorodeoxyglucose] | 1–2 | – |
| ^18F-deoxy-thiamine | – | less than 0.4 |
